Where two headings read alike, the source gives them in different places.
How the values were obtained:
Pin1 [1] = target: Pin1 (Mus musculus, UniProt Q9QUR7); experiment: Pin1 protein, mRNA and half-life in MEFs; format: cell-based; details: for Pin1 protein half-life: 50 μM, 24 h, cycloheximide chase
cyclophilin = experiment: Chymotrypsin coupled PPIase activity assay; format: biochemical
FKBP12 = FKBP12 (Homo sapiens, UniProt P62942); experiment: Chymotrypsin coupled PPIase activity assay; format: biochemical
Sequence of FKBP12 (P62942 whole entry, species assumed): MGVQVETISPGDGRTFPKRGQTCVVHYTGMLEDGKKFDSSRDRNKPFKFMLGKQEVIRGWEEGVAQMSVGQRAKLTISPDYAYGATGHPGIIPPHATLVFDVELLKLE

[2] = test system: APL cells isolated from hCG-PML-RARα transgenic mice; details: 3 weeks treatment
NIH 3T3 cells = experiment: Centrosome amplification induced by Pin1 overexpression; format: cell-based; details: 72 h
SKBR3 cells = experiment: Foci formation assay; format: cell-based; details: 48 h
cyclin D1 promoter = experiment: Cyclin D1 promoter-driven luciferase reporter assay; format: cell-based; details: SKBR3 cells, 72 h
[3] = standard doses in human patients; cited from earlier work
Pin1 [4] = target: T1, Pin1 (Homo sapiens, UniProt Q13526); experiment: Immunostaining of bone marrow of APL patients treated with ATRA; format: in vivo
T1 sequence (Q13526 whole entry): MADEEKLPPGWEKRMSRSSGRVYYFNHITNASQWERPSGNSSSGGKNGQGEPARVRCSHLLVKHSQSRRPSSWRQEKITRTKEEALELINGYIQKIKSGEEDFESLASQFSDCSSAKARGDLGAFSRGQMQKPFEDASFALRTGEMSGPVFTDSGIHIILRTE

Pin1 [5] = target: T1, Pin1; format: binding; details: incubation 0.5 hour
MCF10A cells = experiment: Colorimetric MTT assay; format: cell-based, human; details: 72 h
Pin1 WT MEFs = experiment: MTT cell growth assay; format: cell-based, mouse; details: 72 h
MDA-MB-468 cells = experiment: MDA-MB-468 xenograft in nude mice; format: in vivo; details: ATRA-releasing pellets
PML-RARα [6] = experiment: Immunoblotting for PML-RARα in NB4 cells; format: cell-based, human; details: 72 h
MDA-MB-231 cells = experiment: MDA-MB-231 xenograft in nude mice; format: in vivo
PML-RARα [7] = experiment: Immunostaining of bone marrow of APL patients treated with ATRA; format: in vivo, human
Pin1 KO MEFs = experiment: MTT cell growth assay; format: cell-based, mouse; details: 72 h, compared with WT MEFs
HMLE cells = experiment: Colorimetric MTT assay; format: cell-based, human; details: 72 h
[8] = test system: Pin1 and its substrate oncogenes and tumor suppressors; format: cell-based, human; details: 72 hr
human APL NB4 cells = experiment: APL cell differentiation; format: cell-based; details: 72 h
Pin1 [9] = target: T1, Pin1; experiment: Immunoblotting for Pin1 in NB4 cells; format: cell-based; details: 72 h
breast cancer cells = experiment: Growth and Pin1 degradation in breast cancer cells, combinations with ATRA; format: cell-based, human
Pin1 [10] = target: T1, Pin1; experiment: Photoaffinity labeling of Pin1 with [3H]ATRA; format: binding; details: SDS gels
Pin1 [11] = target: T1, Pin1; experiment: Binding of
Pin1 [12] = target: T1, Pin1; details: cited from earlier work
[13] = target: FKBP12 (FK506-binding protein 12) (Homo sapiens, UniProt P62942); experiment: Binding of fluorescently-labeled pTide to FKBP12
Sequence of FKBP12 (FK506-binding protein 12) (P62942 whole entry, species assumed): as the sequence (P62942 whole entry, species assumed) above

[14] = three ATRA-sensitive cancer cell lines

Sequence of Pin1 (Mus musculus, UniProt Q9QUR7) (Q9QUR7 whole entry): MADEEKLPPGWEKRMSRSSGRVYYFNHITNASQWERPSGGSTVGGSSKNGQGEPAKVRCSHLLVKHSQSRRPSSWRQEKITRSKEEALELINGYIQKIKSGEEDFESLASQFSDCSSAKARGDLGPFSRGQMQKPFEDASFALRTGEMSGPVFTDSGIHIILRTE

Q: Which Pin1 protein half-life (Pin1 [1]) does the source give for CC1=C(/C=C/C(C)=C/C=C/C(C)=C\C(=O)O)C(C)(C)CCC1 [13cRA, 13-cis-retinoic acid] here?
A: reduced Pin1 protein half-life

Q: What about the “inhibition of cyclophilin PPIase activity” value (cyclophilin) of the same molecule?
A: neither inhibited

Q: What about the “inhibition of FKBP12 PPIase activity” value (FKBP12) of the same molecule?
A: neither inhibited

Q: Which “PML-RARα in the bone marrow” value [2] does the source give for CC1=C(/C=C/C(C)=C/C=C/C(C)=C/C(=O)O)C(C)(C)CCC1 [ATRA, all-trans retinoic acid] here?
A: effectively reduced PML-RARα in the bone marrow

Q: What about the “Pin1 levels in the bone marrow” value [2] of the same molecule?
A: reduced Pin1 levels in the bone marrow

Q: And the spleen weights [2]?
A: spleen weights nearly at basal levels

Q: What about the “inhibition of Pin1 overexpression-induced centrosome amplification” value (NIH 3T3 cells) of the same molecule?
A: dose-dependently and fully inhibited

Q: And the “inhibition of Pin1-enhanced foci formation” value (SKBR3 cells)?
A: dose-dependently and fully inhibited

Q: And the “inhibition of Pin1-induced activation of the cyclin D1 promoter” value (cyclin D1 promoter)?
A: dose-dependently and fully inhibited

Q: What about the Pin1 protein half-life (Pin1 [1]) of the same molecule?
A: reduced Pin1 protein half-life

Q: What about the “Pin1 mRNA levels” value (Pin1 [1]; 72 h, quantitative RT-PCR) of the same molecule?
A: no obvious effects

Q: And the Pin1 protein abundance (Pin1 [1]; WT Pin1, 72 h, immunoblotting)?
A: dose-dependently down-regulated

Q: What about the drug concentration produced [3] of the same molecule?
A: 1.2 µM

Q: What about the “Pin1 remaining after treatment” value (Pin1 [4]; 3 days of ATRA treatment) of the same molecule?
A: ~ 40%

Q: What about the “Pin1 remaining after treatment” value (Pin1 [4]; 10 days of ATRA treatment) of the same molecule?
A: < 10%

Q: What about the “Pin1 binding (FP assay)” value (Pin1 [5]) of the same molecule?
A: most potent

Q: What about the “cell proliferation, susceptibility to ATRA” value (MCF10A cells) of the same molecule?
A: highly resistant to ATRA

Q: What about the inhibition of growth (Pin1 WT MEFs) of the same molecule?
A: Relatively high concentrations of ATRA were required

Q: And the “abundance of Pin1 and cyclin D1 in tumors” value (MDA-MB-468 cells)?
A: reduced abundance of Pin1 and its substrate cyclin D1

Q: What about the “inhibition of cyclophilin PPIase activity” value (cyclophilin) of the same molecule?
A: neither inhibited

Q: And the PML-RARα abundance (PML-RARα [6])?
A: dose-dependently reduced PML-RARα

Q: And the “inhibition of FKBP12 PPIase activity” value (FKBP12)?
A: neither inhibited

Q: What about the antitumor activity (MDA-MB-231 cells; 33.0 μmol/kg intraperitoneally 3 times a week for 8 weeks) of the same molecule?
A: only modest antitumor activity

Q: What about the “growth of tumors from MDA-MB-231 cells stably expressing Pin1” value (MDA-MB-231 cells; ATRA implants for 7 weeks) of the same molecule?
A: effectively inhibited by ATRA in a dose-dependent manner

Q: What about the “abundance of Pin1 and cyclin D1 in tumors” value (MDA-MB-231 cells; ATRA-releasing pellets) of the same molecule?
A: reduced abundance of Pin1 and its substrate cyclin D1

Q: And the “PML-RARα remaining after treatment” value (PML-RARα [7]; 3 days of ATRA treatment)?
A: ~ 40%

Q: And the “PML-RARα remaining after treatment” value (PML-RARα [7]; 10 days of ATRA treatment)?
A: < 10%

Q: What about the inhibition of growth (Pin1 KO MEFs) of the same molecule?
A: more resistant to ATRA

Q: What about the “cell proliferation, susceptibility to ATRA” value (HMLE cells) of the same molecule?
A: highly resistant to ATRA

Q: And the “effects on Pin1 and substrate proteins” value ([8]; MCF10A cells)?
A: no appreciable effects

Q: What about the “abundance of Pin1 and substrate oncogenes (cyclin D1, HER2, ERα, Akt, NFκB p65, c-Jun, PKM2)” value [8, 14] of the same molecule?
A: dose-dependent decrease in abundance of Pin1 and its substrate oncogenes

Q: And the “abundance of Pin1 substrate tumor suppressors (Smad2/3, SMRT)” value [8, 14]?
A: increase in abundance of Pin1 substrate tumor suppressors

Q: Which “PML-RARα in the bone marrow” value [2] does the source give for O=C(O[C@@H]1Cc2c(O)cc(O)cc2O[C@@H]1c1cc(O)c(O)c(O)c1)c1cc(O)c(O)c(O)c1 [EGCG] here?
A: effectively reduced PML-RARα in the bone marrow

Q: And the “condition of treated mice” value [2]?
A: rather sick

Q: What about the spleen weights [2] of the same molecule?
A: spleen weights nearly at basal levels

Q: What about the “induction of APL cell differentiation” value (human APL NB4 cells) of the same molecule?
A: neither Pin1 inhibitors nor Pin1 shRNA induced human APL cell differentiation

Q: What about the Pin1 abundance (Pin1 [9]) of the same molecule?
A: inhibited Pin1 without degrading it

Q: What about the PML-RARα abundance (PML-RARα [6]) of the same molecule?
A: dose-dependently reduced PML-RARα

Q: Which “PML-RARα in the bone marrow” value [2] does the source give for O=C1C=CC(=O)c2c(O)cccc21 [Juglone] here?
A: effectively reduced PML-RARα in the bone marrow

Q: And the “condition of treated mice” value [2]?
A: rather sick

Q: What about the spleen weights [2] of the same molecule?
A: spleen weights nearly at basal levels

Q: And the “induction of APL cell differentiation” value (human APL NB4 cells)?
A: neither Pin1 inhibitors nor Pin1 shRNA induced human APL cell differentiation

Q: What about the Pin1 abundance (Pin1 [9]) of the same molecule?
A: inhibited Pin1 without degrading it

Q: And the PML-RARα abundance (PML-RARα [6])?
A: dose-dependently reduced PML-RARα

Q: Which “induction of APL cell differentiation” value (human APL NB4 cells) does the source give for CCOC(=O)CN1C(=O)c2ccc3c4c(ccc(c24)C1=O)C(=O)N(CC(=O)OCC)C3=O [PiB] here?
A: neither Pin1 inhibitors nor Pin1 shRNA induced human APL cell differentiation

Q: What about the Pin1 abundance (Pin1 [9]) of the same molecule?
A: inhibited Pin1 without degrading it

Q: And the PML-RARα abundance (PML-RARα [6])?
A: dose-dependently reduced PML-RARα

Q: With CCCCCCCOc1cc2c(cc1/C(C)=C/c1ccc(C(=O)O)cc1)C(C)(C)CCS2(=O)=O [Ro-415253] as the molecule, how does the “effect on the ability of ATRA to induce Pin1 degradation or inhibit proliferation” value (breast cancer cells) read?
A: neither had obvious effects

Q: And the “Pin1 binding (FP assay)” value (Pin1 [5])?
A: minimal Pin1 binding

Q: For CC1=C(/C=C/C(C)=C/C=C/C(C)=C/C(=O)O)C(C)(C)CCC1 [[^3H]-ATRA, all-trans-[11,12-3H]retinoic acid], which Kd (Pin1 [10]) is on record?
A: 800 nM

Q: For C=C(c1ccc(C(=O)O)cc1)c1cc2c(cc1C)C(C)(C)CCC2(C)C [bexarotene], which “Pin1 binding (FP assay)” value (Pin1 [5]) is on record?
A: only marginal Pin1 binding

Q: Which “Pin1 binding (FP assay)” value (Pin1 [5]) does the source give for CC1=C(/C=C/C(C)=C/C=C/C(C)=C/C(=O)Nc2ccc(O)cc2)C(C)(C)CCC1 [fenretinide] here?
A: only marginal Pin1 binding

Q: For Clc1cccc(C(c2ccc3[nH]cnc3c2)n2ccnc2)c1 (centres unmarked) [liarazole], which “effect in combination with ATRA on cell growth” value (breast cancer cells) is on record?
A: generally additive effects with ATRA

Q: With CC1=C(/C=C/C(C)=C/C=C/C(C)=C/C=O)C(C)(C)CCC1 [retinal] as the molecule, how does the “Pin1 binding (FP assay)” value (Pin1 [5]) read?
A: totally inactive

Q: With CC1=C(/C=C/C(C)=C/C=C/C(C)=C/CO)C(C)(C)CCC1 [retinol] as the molecule, how does the “Pin1 binding (FP assay)” value (Pin1 [5]) read?
A: totally inactive

Q: For CC(=O)OC/C=C(C)/C=C/C=C(C)/C=C/C1=C(C)CCCC1(C)C [retinyl acetate], which “Pin1 binding (FP assay)” value (Pin1 [5]) is on record?
A: totally inactive

Q: What does the source list for Bth-D-phos.Thr-Pip-Nal [pTide]?
A: binding of fluorescently-labeled pTide to Pin1 (Pin1 [11]): bound to Pin1; Kd (Pin1 [12]): 1.2 nM; binding of fluorescently-labeled pTide to FKBP12 [13]: not to FKBP12

— paper PMC4425616 (Nature medicine, 2015)
